Conditions in the first series: not given
One may read the melting point as the temperature, or range, at which the solid turns liquid. In the case of `ClC1=C(Cl)C2(Cl)C3C4OC4C(Cl)C3C1(Cl)C2(Cl)Cl` (stereo unspecified), the log10 Henry constant (atm·m³/mol) is -4.68, the log10 Koc (L/kg) came out at 4.02, the log10 vapour pressure (mmHg) is -4.71 and the melting point worked out at 160 °C.
For `Cc1ccccc1OC(=O)Oc1ccccc1C`, the melting point turned out to be 60 °C.
For orientation: boiling point means the temperature at which the vapour pressure of the liquid equals the pressure above it. On to `Fc1ccccc1-c1ccccc1`, for which the boiling point worked out at 248 °C and the melting point was 73.5 °C.
Compound `CCC1CCCCN1C(=O)COC(=O)c1ccccc1` (stereo unspecified) gave a melting point of 54.5 °C.
On the same count and under the same terms, in the case of `NS(=O)(=O)c1ccc(SCCCO)c(Cl)c1` it was 127 °C.
Compound `C=CC(OC)OC` returned a boiling point of 88 °C.
`CC(=O)CCC(C)=O`: the boiling point amounted to 194 °C and the melting point was -5.5 °C.
Regarding `CCCCCCCCCCCCCCCCCCNC(=O)N1CC1`, the ready biodegradability result was “not readily biodegradable”.
Turning to `COC(C)CO` (stereo unspecified), the boiling point turned out to be 130 °C.
As to `Clc1cc2c(Cl)ccc(Cl)c2c(Cl)c1Cl`, the log10 Koa was 9.1 and the log10 vapour pressure (mmHg) is -6.
Turning to `CCN(CC)C(=O)c1cccc(C)c1`, the boiling point worked out at 290 °C, the log10 vapour pressure (mmHg) was -2.7, the melting point is -45 °C and the ready biodegradability result is “not readily biodegradable”.
Take `Cc1cc(N)c(S(=O)(=O)O)cc1Cl`: the ready biodegradability entry was “not readily biodegradable”.
With `CCCCCCCCCCCCN`, the boiling point is 259 °C, the log10 vapour pressure (mmHg) is -2.09 and the melting point was 28.3 °C.
Consider `O=C1CCc2ccccc2N1`, for which the melting point was 164 °C.
Same read-out and setting: in the case of `O=C1CSC(=S)N1` it was 170 °C; in that of `CCOC(=O)C=C1SC(N2CCCCC2)C(=O)N1CC` (stereo unspecified), 86.5 °C; in that of `O=C(N[C@@H](Cc1ccccc1)C(=O)O)OCc1ccccc1`, 88.5 °C.
For the compound `C=CC(=O)OCC(CC)CCCC` (stereo unspecified), the boiling point came out at 214 °C, the log10 vapour pressure (mmHg) is -0.75, the melting point was -90 °C and the ready biodegradability entry is “readily biodegradable”.
With `CCCCOC(=O)CCCCC(=O)OCCCC`, the melting point is -32.4 °C and the ready biodegradability entry is given as “readily biodegradable”.
Turning to `C=CC#N`, the boiling point was 77.3 °C, the log10 Henry constant (atm·m³/mol) was -3.86, the log10 vapour pressure (mmHg) was determined as 2.04 and the melting point is -83.5 °C. Moreover, the ready biodegradability entry is “readily biodegradable”.
On to `CCC(CC)COC(=O)CCCCCCCC(=O)OCC(CC)CC`, for which the melting point is -45 °C.
As for `O=C(NC(=O)c1ccccc1Cl)Nc1ccc(OC(F)(F)F)cc1`, the log10 vapour pressure (mmHg) is -9.52 and the melting point amounted to 195 °C.
The compound `C=C1CCC(C)CC1` yielded a boiling point of 122 °C.
For the compound `CCCCCCCCCCCCCCO`, the boiling point worked out at 289 °C, the log10 vapour pressure (mmHg) is -3.96, the melting point was found to be 39.5 °C and the ready biodegradability result is listed as “readily biodegradable”.
The compound `N#CCN(CC#N)CCN(CC#N)CC#N` gave a melting point of 128 °C.
Still for that read-out and setting: for `CC(C)S(=O)(=O)n1c(N)nc2ccc(/C(=N/O)c3ccccc3)cc21` the value was 198 °C.
Take `ClCCCCCCl`: the boiling point stood at 179 °C, the log10 Henry constant (atm·m³/mol) was -3.25, the log10 vapour pressure (mmHg) was 0.0531 and the melting point is -72.8 °C.
In the case of `Oc1c(I)cc(Cl)c2cccnc12`, the melting point is 178 °C.
The same measure, in the same setting: in the case of `Cc1ncc2n1-c1ccc(Cl)cc1C(c1ccccc1F)=NC2` it was 159 °C.
`CCCCCCCCF` returned a boiling point of 142 °C and a log10 vapour pressure (mmHg) of 0.772.
With `O=C(Nc1ccccc1)Nc1cnns1`, the log10 Koc (L/kg) turned out to be 2.04 and the log10 vapour pressure (mmHg) is -10.6.
Consider `CCCCCCCCCCCCCCCCCC(=O)OCC`, for which the log10 vapour pressure (mmHg) was -5.59 and the melting point amounted to 33 °C.
As to `C=Cc1cccc(CC)c1`, the boiling point was found to be 190 °C, the log10 vapour pressure (mmHg) is -0.0947, the melting point was -101 °C and the ready biodegradability result is “not readily biodegradable”.
For the compound `O=C(O)c1cc(O)c(O)c(O)c1`, the ready biodegradability entry is “readily biodegradable”.
In turn, `CC(=O)Oc1ccccc1OC(C)=O` showed a melting point of 64.5 °C.
Same read-out and setting: for `C=CC(=O)NC(C)C` the value was 64 °C.
In the case of `c1ccc2cc3cc4ccccc4cc3cc2c1`, the log10 Koc (L/kg) is 5.81, the log10 vapour pressure (mmHg) was -8.6 and the melting point was found to be 357 °C.
With `COC(=O)c1ccccc1C(=O)OC`, the boiling point is 284 °C, the log10 Koc (L/kg) is 1.6, the log10 vapour pressure (mmHg) is -2.51 and the melting point was determined as 5.5 °C. Moreover, the ready biodegradability entry was “readily biodegradable”.
For the compound `N#CCC(=O)c1ccccc1`, the melting point turned out to be 80.5 °C.
`O=C(OC(=O)C(Cl)(Cl)Cl)C(Cl)(Cl)Cl`: the log10 vapour pressure (mmHg) is -0.908.
`CC(C)(Oc1ccc(CCNC(=O)c2ccc(Cl)cc2)cc1)C(=O)O` had a melting point of 186 °C.
Regarding `CCCCCCCCCCCCCS`, the boiling point worked out at 291 °C and the log10 vapour pressure (mmHg) was -3.16.
Regarding `FC(Br)(Br)Br`, the boiling point turned out to be 108 °C and the melting point is -73.6 °C.
Consider `FB(F)c1ccccc1`, for which the boiling point was 98 °C and the melting point was -36.2 °C.
With `CNC(=O)Oc1ccc2c(c1)[C@]1(C)CCO[C@@H]1N2C`, the melting point was determined as 124 °C.
Still for that read-out and setting: for `Cc1ccc(O)c(N=Nc2ccccc2)c1` the value was 108 °C.
Regarding `COC(=O)c1ccc(OC)cc1`, the boiling point came to 256 °C and the melting point was determined as 49 °C.

The series is the same for the next values; noted with them: fish.
Take `C=CC(=C)C`: the log10 BCF was determined as 1.3 and the log10 biotransformation half-life (days) is -0.61.
Regarding `CCc1nn(C)c(C(=O)NCc2ccc(C(C)(C)C)cc2)c1Cl`, the log10 BCF stood at 1.15.
On the same count and under the same terms, for `Nc1ccncc1` the value was 0.66.
For the compound `Cc1cc(C(C)(C)C)c(O)c(C(C)(C)C)c1`, the log10 BCF came to 3.03 and the log10 biotransformation half-life (days) came to 0.32.
The matching figures for `C1CCCCCCCCCCC1`: 3.91 and 1.33.
On to `COc1ccc(C(c2ccc(OC)cc2)C(Cl)(Cl)Cl)cc1`, for which the log10 BCF amounted to 2.5.
For the compound `ClC1=C(Cl)C2(Cl)C3C4OC4C(Cl)C3C1(Cl)C2(Cl)Cl` (stereo unspecified), the log10 biotransformation half-life (days) was 2.2.
`CCN(CC)C(=O)c1cccc(C)c1` returned a log10 BCF of 0.38.
The compound `CCc1ccc2ccc3cccc4ccc1c2c34` returned a log10 biotransformation half-life (days) of 0.24.

For the origin of these results see the OPERA property sets (Mansouri et al. 2018).
